# Reference: US11919965B2, “Methods of treating multiple myeloma with bispecific anti-BCMA x anti-CD3 antibodies” (Regeneron Pharmaceuticals, Inc., priority 2019, dated 2024)
# Assays:
# [1] = system: BCMA-expressing MOLP-8 multiple myeloma tumors; experiment: Xenogenic tumor model, MOLP-8 + human PBMC s.c. in NSG mice, dose response (Example 13); assay type: in vivo, mouse
# Procedure: To determine the in vivo efficacy of anti-BCMA×anti-CD3 bispecific antibodies (Abs), a xenogenic tumor study was performed. Immunodeficient NOD.Cg-Prkdc^scidII2rg^tm1Wjl/SzJ (NSG) mice were subcutaneously implanted with a mixture of 5×10^6 BCMA-expressing MOLP-8 human multiple myeloma tumor cells and 1×10^6 human peripheral blood mononuclear cells (PBMC) isolated from a normal, healthy donor. […] The mice were administered these Abs twice per week for a total of seven doses, and tumor growth was assessed over 56 days. While the BCMA+ MOLP-8 tumors grew similarly in the vehicle- and CD3-binding control-treated mice, both BCMA×CD3 Abs that were tested prevented the growth of tumors in a dose-dependent manner in vivo.
# Implantation and measurement of xenogenic tumors: NSG mice were subcutaneously implanted with a mixture of 5×10^6 BCMA-expressing MOLP-8 multiple myeloma cells and 1×10^6 PBMC derived from a normal, healthy donor. […] The mice were administered Abs twice per week for a total of seven doses. Tumor growth was measured by caliper twice per week for the duration of the experiment.
# (§1) Calculation of xenogenic tumor growth and inhibition: In order to determine tumor volume by external caliper, the greatest longitudinal diameter (length in mm) and the greatest transverse diameter (width in mm) were determined. Tumor volumes based on caliper measurements were calculated by the formula: Volume (mm^3)=(length× width^2)/2.
# [2] = system: BCMA-expressing NCI-H929 multiple myeloma tumors; experiment: Xenogenic tumor model, NCI-H929 + human PBMC s.c. in NSG mice, treatment from implantation (Example 10); assay type: in vivo, mouse; details: 4 mg/kg
# Procedure: To determine the in vivo efficacy of BCMA×CD3 bispecific antibodies (Abs), a xenogenic tumor study was performed. Immunodeficient NOD.Cg-Prkdc^scidII2rgtm1Wjl/SzJ (NSG) mice were subcutaneously implanted with a mixture of 10×10^6 BCMA-expressing NCI-H929 multiple myeloma cells and 0.5×10^6 human peripheral blood mononuclear cells (PBMC) isolated from a normal donor. […] The mice were administered Abs twice per week for a total of three weeks, and tumor growth was assessed over 40 days. While BCMA^+ tumors grew similarly in the vehicle-, isotype control-, and CD3-binding control-treated mice, both BCMA×CD3 Abs that were tested prevented the growth of tumors in vivo.
# Implantation and measurement of syngeneic tumors: NSG mice were subcutaneously implanted with a mixture of 10×10^6 BCMA-expressing NCI-H929 multiple myeloma cells and 0.5×10^6 PBMC derived from a normal donor. […] The mice were administered Abs twice per week for a total of three weeks. Tumor growth was measured with calipers twice per week for the duration of the experiment. Mice were sacrificed 40 days after tumor implantation.
# as §1, with “syngeneic” for “xenogenic”
# [3] = system: Jurkat/NFATLuc.3C7 reporter cells with NCI-H929 cells (BCMA positive); experiment: Jurkat/NFATLuc reporter bioassay (T-cell activation); assay type: cell-based, human
# Procedure: (§2) Activity of the anti-BCMA×anti-CD3 bispecific antibodies were assessed in a Jurkat/NFATLuc reporter bioassay utilizing several cell lines with varying levels of BCMA surface expression. The Jurkat cells were engineered to express an NFAT-luciferase reporter (Jurkat/NFATLuc.3C7), and 50,000 Jurkat reporter cells were combined with 50,000 BCMA positive (Daudi, MM1-S, NCI-H929, OPM-2, RPMI-8226, MOLP-8, or Raji) or BCMA negative (HEK293) cells in Thermo Nunclon delta 96 well white microwell plates (Thermo Scientific, Cat #136102) in 50 ul of assay media (RPMI media with 10% FBS and 1% P/S/G). Three-fold serial dilutions of the BCMA×CD3 bispecific antibodies (mAb25441D or mAb25442D), or a bivalent anti-BCMA antibody (mAb21581) were immediately added in 50 uL of assay buffer. The plates were gently agitated and incubated in a 37° C., 5% CO2 incubator for 4-6 hours. NFAT-Luciferase activity was determined using Promega One-Glo (Cat #E6130) and a Perkin Elmer Envision plate reader. RLU were plotted in GraphPad Prism using a four-parameter logistic equation over a 12-point response curve to calculate EC50 values. The no antibody treatment condition for each dose-response curve is also included in the analysis as a continuation of the three-fold serial dilution and is represented as the lowest dose. The signal to noise (S:N) is determined by taking the ratio of the highest RLU on the curve to the lowest.
# [4] = system: Jurkat/NFATLuc.3C7 reporter cells with OPM-2 cells (BCMA positive); experiment: as above; assay type: cell-based, human
# Procedure: as §2
substance,measurement,setting,value
"REGN5458: anti-BCMA×anti-CD3 bispecific antibody: mAb21581 BCMA heavy chain, mAb7221G CD3 heavy chain and common light chain; SEQ ID NOs 126, 127, 129",Average Tumor Size (mm3) ± SEM on Day 3,[1]; 0.04 mg/kg,9.3 ± 2.4 mm3
same,Average Tumor Size (mm3) ± SEM on Day 7,[1]; 0.04 mg/kg,18.3 ± 5.0 mm3
same,Average Tumor Size (mm3) ± SEM on Day 10,[1]; 0.04 mg/kg,73.9 ± 25.7 mm3
same,Average Tumor Size (mm3) ± SEM on Day 14,[1]; 0.04 mg/kg,255.4 ± 79.7 mm3
same,Average Tumor Size (mm3) ± SEM on Day 17,[1]; 0.04 mg/kg,494.3 ± 144.3 mm3
same,Average Tumor Size (mm3) ± SEM on Day 21,[1]; 0.04 mg/kg,1373.0 ± 366.6 mm3
same,Average Tumor Size (mm3) ± SEM on Day 23,[1]; 0.04 mg/kg,1882.3 ± 551.5 mm3
same,Average Tumor Size (mm3) ± SEM on Day 28,[1]; 0.04 mg/kg,2542.5 ± 613.3 mm3
same,Average Tumor Size (mm3) ± SEM on Day 31,[1]; 0.04 mg/kg,2906.1 ± 532.6 mm3
same,Average Tumor Size (mm3) ± SEM on Day 35,[1]; 0.04 mg/kg,3538.0 ± 0.0 mm3
same,Average Tumor Size (mm3) ± SEM on Day 3,[1]; 0.4 mg/kg,13.5 ± 1.5 mm3
same,Average Tumor Size (mm3) ± SEM on Day 7,[1]; 0.4 mg/kg,1.0 ± 1.0 mm3
same,Average Tumor Size (mm3) ± SEM on Day 10,[1]; 0.4 mg/kg,0 ± 0 mm3
same,Average Tumor Size (mm3) ± SEM on Day 14,[1]; 0.4 mg/kg,0 ± 0 mm3
same,Average Tumor Size (mm3) ± SEM on Day 17,[1]; 0.4 mg/kg,1.7 ± 1.7 mm3
same,Average Tumor Size (mm3) ± SEM on Day 21,[1]; 0.4 mg/kg,5.3 ± 5.3 mm3
same,Average Tumor Size (mm3) ± SEM on Day 23,[1]; 0.4 mg/kg,9.7 ± 9.7 mm3
same,Average Tumor Size (mm3) ± SEM on Day 28,[1]; 0.4 mg/kg,47.4 ± 47.4 mm3
same,Average Tumor Size (mm3) ± SEM on Day 31,[1]; 0.4 mg/kg,104.7 ± 92.6 mm3
same,Average Tumor Size (mm3) ± SEM on Day 35,[1]; 0.4 mg/kg,375.1 ± 307.5 mm3
same,Average Tumor Size (mm3) ± SEM on Day 42,[1]; 0.4 mg/kg,968.8 ± 689.2 mm3
same,Average Tumor Size (mm3) ± SEM on Day 56,[1]; 0.4 mg/kg,1742.4 ± 635.2 mm3
same,Average Tumor Size (mm3) ± SEM on Day 3,[1]; 4 mg/kg,12.5 ± 1.3 mm3
same,Average Tumor Size (mm3) ± SEM on Day 7,[1]; 4 mg/kg,0 ± 0 mm3
same,Average Tumor Size (mm3) ± SEM on Day 10,[1]; 4 mg/kg,0 ± 0 mm3
same,Average Tumor Size (mm3) ± SEM on Day 14,[1]; 4 mg/kg,0 ± 0 mm3
same,Average Tumor Size (mm3) ± SEM on Day 17,[1]; 4 mg/kg,14.5 ± 7.3 mm3
same,Average Tumor Size (mm3) ± SEM on Day 21,[1]; 4 mg/kg,102.7 ± 66.2 mm3
same,Average Tumor Size (mm3) ± SEM on Day 23,[1]; 4 mg/kg,193.3 ± 117.7 mm3
same,Average Tumor Size (mm3) ± SEM on Day 28,[1]; 4 mg/kg,627.4 ± 318.1 mm3
same,Average Tumor Size (mm3) ± SEM on Day 31,[1]; 4 mg/kg,1018.5 ± 498.3 mm3
same,Average Tumor Size (mm3) ± SEM on Day 35,[1]; 4 mg/kg,1342.9 ± 629.6 mm3
same,Average Tumor Size (mm3) ± SEM on Day 42,[1]; 4 mg/kg,2363.0 ± 890.2 mm3
same,Average Tumor Size (mm3) ± SEM on Day 49,[1]; 4 mg/kg,1683.5 ± 1683.5 mm3
same,Average Tumor Size (mm3) ± SEM on Day 56,[1]; 4 mg/kg,3108.1 ± 3108.1 mm3
same,Average Tumor Size (mm3) ± SEM on Day 4,[2],39.5 ± 9.1 mm3
same,Average Tumor Size (mm3) ± SEM on Day 7,[2],0 ± 0 mm3
same,Average Tumor Size (mm3) ± SEM on Day 11,[2],0 ± 0 mm3
same,Average Tumor Size (mm3) ± SEM on Day 14,[2],0 ± 0 mm3
same,Average Tumor Size (mm3) ± SEM on Day 18,[2],0 ± 0 mm3
same,Average Tumor Size (mm3) ± SEM on Day 21,[2],0 ± 0 mm3
same,Average Tumor Size (mm3) ± SEM on Day 28,[2],0 ± 0 mm3
same,Average Tumor Size (mm3) ± SEM on Day 40,[2],0 ± 0 mm3
same,S:N (highest RLU to lowest),[3],39
same,S:N (highest RLU to lowest),[4],8
